Results published in patent US20240091230A1, “USE OF KRAS G12C INHIBITOR IN TREATING CANCERS” (AMGEN INC., priority 2021, published 2024).

System: locally advanced or metastatic KRAS G12C mutant NSCLC
Assay: CodeBreaK 100 phase 2 portion, sotorasib monotherapy 960 mg QD (NCT03600883)
Type: in vivo, human
Conditions: among 46 confirmed responders; cutoff Sep. 1, 2020
Description: As discussed above, in phase 2 of the CodeBreaK 100 Trial (ClinicalTrials.gov identifier: NCT03600883) subjects with locally advanced or metastatic KRAS G12C mutant NSCLC were treated with the compound of Formula I as monotherapy at 960 mg QD.
• Subject has provided informed consent prior to initiation of any study specific activities/procedures. • Men or women: 18 years of age or older. • Pathologically documented, locally-advanced or metastatic malignancy with KRAS G1 2C 10 mutation identified through molecular testing. For phase 2. the mutation was confirmed by central testing prior to enrollment. • Subjects must have progressed after receiving anti-PD-1 or anti-PD-L1 immunotherapy (unless contraindicated) AND/OR platinum-based combination chemotherapy AND targeted therapy if actionable oncogenic driver mutations were identified (i.e., EGFR, ALK, and ROS1). Subjects must have received no more than 3 prior lines of therapy. The following guidance was used: • Adjuvant therapy was counted as a line of therapy if the subject progressed on or within 6 months of adjuvant therapy administration. • In locally advanced and unresectable NSCLC, disease progression on or within six months of end of prior curatively intended multimodal therapy was counted as a line of therapy.
• Active brain metastases from non-brain tumors.
Samples for biomarker analysis, e.g., to evaluate potential biomarkers that may correlate with treatment response, were collected.
For subjects with NSCLC an archival tumor sample (formalin fixed, paraffin embedded (FFPE) sample, collected within 5 years of enrollment) or pretreatment tumor biopsy (core needle or fine needle aspirates or excisional FFPE sample) was submitted prior to enrollment for central laboratory testing as well as subsequent exploratory biomarker analyses. […]
KRAS G12C mutation testing was conducted using a therascreen® KRAS RGQ PCR Kit (Qiagen). […] The mutations detected are: G12A, G12D, G12R, G12C, G12S, G12V, and G13D.
PD-L1 testing was conducted at the central labs using the Dako PharmDx 22C3 immunohistochemistry FDA-approved kit according to the instructions for use. […] All slides were reviewed and scored by a board-certified pathologist trained to score the PD-L1 IHC 22C3 pharrnDx assay.
STK11, KEAP1 , and TP53 mutation testing was conducted using the Resolution Bioscience Resolution ctDx Lung™ assay that included 24 genes (including those actionable in NSCLC). […] STK11/KEAP1/TP53 co-mutation analysis determined mutational status from baseline tissue and/or plasma samples, and mutations include nonsense, missense, frameshift, or splice site mutations and insertion/deletions predicted to be loss-of-function, and excluded variants of unknown significance. […]

Structure (SMILES): C=CC(=O)N1CCN(c2nc(=O)n(-c3c(C)ccnc3C(C)C)c3nc(-c4c(O)cccc4F)c(F)cc23)[C@@H](C)C1 [sotorasib, 6-fluoro-7-(2-fluoro-6-hydroxyphenyl)-(1M)-1-[4-methyl-2-(propan-2-yl)pyridin-3--yl]-4-[(2S)-2-methyl-4-(prop-2-enoyl)piperazin-1-yl]pyrido[2,3-d]pyrimidin-2(1H)-one]
- Duration of response (KM) - 25th percentile: 6.8 months
- Duration of response (KM) - 75th percentile: 8.4 months
- Duration of response (KM) - Max (+ for censored): 8.4 months
- Duration of response (KM) - Median: 8.4 months
